Experimental data taken from patent US11331314B2, “Amine substituted triazole derivatives and uses thereof” (Bayer Pharma Aktiengesellschaft, priority 2017, dated 2022).
pIC50: −log10 of the molar value.

How the values were obtained:
human V1a receptor = human V1a receptor (Homo sapiens, UniProt P37288); assay: Cellular in vitro assay for determining vasopressin receptor activity, V1a receptor cell line (photoprotein luminescence); type: cell-based; conditions: for pIC50: CHO cell line transfected with the human V1a receptor, agonist [Arg8]-vasopressin at EC50 concentration, read-out: IC50 hV1a; for ratio IC50 hV2/hV1a: selectivity ratio of the cellular IC50 values
Sequence of human V1a receptor (P37288 whole entry): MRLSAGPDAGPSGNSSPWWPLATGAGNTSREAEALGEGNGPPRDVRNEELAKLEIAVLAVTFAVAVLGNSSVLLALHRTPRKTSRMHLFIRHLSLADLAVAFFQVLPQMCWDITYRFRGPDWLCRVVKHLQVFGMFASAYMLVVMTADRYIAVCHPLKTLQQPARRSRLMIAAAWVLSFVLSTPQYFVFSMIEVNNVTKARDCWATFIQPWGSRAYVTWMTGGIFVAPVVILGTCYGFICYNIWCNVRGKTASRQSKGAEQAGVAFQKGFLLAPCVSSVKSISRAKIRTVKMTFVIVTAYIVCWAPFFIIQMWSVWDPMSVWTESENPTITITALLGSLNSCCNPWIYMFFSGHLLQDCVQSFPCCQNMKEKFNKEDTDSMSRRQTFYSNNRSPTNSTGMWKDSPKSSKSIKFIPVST
Summary of the method: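 CHO K1 cells stably expressing human V1a receptor with aequorin photoprotein, loaded overnight with coelenterazine. Compounds preincubated 10 min at various concentrations, then challenged with [Arg^8]-vasopressin at EC50 concentration. Calcium-driven luminescence read immediately; IC50 values derived.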

human V2 receptor = molecular target: T1, human V2 receptor (Homo sapiens, UniProt P30518); assay: Cellular in vitro assay for determining vasopressin receptor activity, V2 receptor cell line (CRE-luciferase); type: cell-based; conditions: CHO cell line transfected with the human V2 receptor; agonist [Arg8]-vasopressin at EC50 concentration; read-out: IC50 hV2
T1 construct: expressed in transfected cells; host or cells: CHO K1 (ATCC) expressing firefly luciferase under a CRE-responsive promoter
T1 sequence (P30518 whole entry): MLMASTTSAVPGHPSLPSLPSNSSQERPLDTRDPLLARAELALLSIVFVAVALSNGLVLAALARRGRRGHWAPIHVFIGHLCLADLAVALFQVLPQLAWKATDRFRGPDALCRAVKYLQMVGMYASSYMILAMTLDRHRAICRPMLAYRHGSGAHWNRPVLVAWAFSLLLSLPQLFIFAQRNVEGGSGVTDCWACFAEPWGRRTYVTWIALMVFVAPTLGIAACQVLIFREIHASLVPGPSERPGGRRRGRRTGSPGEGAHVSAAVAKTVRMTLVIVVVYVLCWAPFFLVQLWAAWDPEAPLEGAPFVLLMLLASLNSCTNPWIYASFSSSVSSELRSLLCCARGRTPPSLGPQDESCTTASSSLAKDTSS

pIC50 (human V1a receptor)	ratio IC50 hV2/hV1a (human V1a receptor)	pIC50 (human V2 receptor)	Compound
8.62	11.1	7.57	O=c1n(Cc2nc(N3CCCC3)n(-c3ccccc3Cl)n2)nc(-c2ccc(Cl)cc2)n1C[C@H](O)C(F)(F)F [Example 87, 5-(4-Chlorophenyl)-2-{[1-(2-chlorophenyl)-5-(pyrrolidin-1-yl)-1H-1,2,4-triazol-3-yl]methyl}-4-[(2S)-3,3,3-trifluoro-2-hydroxypropyl]-2,4-dihydro-3H-1,2,4-triazol-3-one]
8.25	2.1	7.93	O=c1n(Cc2nc(N3CCCC3)n(-c3cccc(F)c3)n2)nc(-c2ccc(Cl)cc2)n1C[C@H](O)C(F)(F)F [Example 88, 5-(4-Chlorophenyl)-2-{[1-(3-fluorophenyl)-5-(pyrrolidin-1-yl)-1H-1,2,4-triazol-3-yl]methyl}-4-[(2S)-3,3,3-trifluoro-2-hydroxypropyl]-2,4-dihydro-3H-1,2,4-triazol-3-one]
8.26	14.8	7.09	O=C1CN(c2nc(Cn3nc(-c4ccc(Cl)cc4)n(C[C@H](O)C(F)(F)F)c3=O)nn2-c2ccccc2F)CCN1 [Example 89, 4-[3-({3-(4-Chlorophenyl)-5-oxo-4-[(2S)-3,3,3-trifluoro-2-hydroxypropyl]-4,5-dihydro-1H-1,2,4-triazol-1-yl}methyl)-1-(2-fluorophenyl)-1H-1,2,4-triazol-5-yl]piperazin-2-one]
8.06	28.1	6.61	O=c1n(Cc2nc(N3CCS(=O)(=O)CC3)n(-c3ccccc3F)n2)nc(-c2ccc(Cl)cc2)n1C[C@H](O)C(F)(F)F [Example 90, 5-(4-Chlorophenyl)-2-{[5-(1,1-dioxidothiomorpholin-4-yl)-1-(2-fluorophenyl)-1H-1,2,4-triazol-3-yl]methyl}-4-[(2S)-3,3,3-trifluoro-2-hydroxypropyl]-2,4-dihydro-3H-1,2,4-triazol-3-one]
8.94	91.7	6.98	CC(C)(N)CNc1nc(Cn2nc(-c3ccc(Cl)cc3)n(C[C@H](O)C(F)(F)F)c2=O)nn1-c1ccccc1F [Example 91, 2-({5-[(2-Amino-2-methylpropyl)amino]-1-(2-fluorophenyl)-1H-1,2,4-triazol-3-yl}methyl)-5-(4-chlorophenyl)-4-[(2S)-3,3,3-trifluoro-2-hydroxypropyl]-2,4-dihydro-3H-1,2,4-triazol-3-one]
7.38	73.5	5.52	CC(C)(N)CNc1nc(Cn2nc(-c3ccc(Cl)cc3)n(C[C@H](O)C(F)(F)F)c2=O)nn1-c1ncccc1F [Example 92, 2-({5-[(2-Amino-2-methylpropyl)amino]-1-(3-fluoropyridin-2-yl)-1H-1,2,4-triazol-3-yl}methyl)-5-(4-chlorophenyl)-4-[(2S)-3,3,3-trifluoro-2-hydroxypropyl]-2,4-dihydro-3H-1,2,4-triazol-3-one]
7.55	112.5	5.50	CC(C)(N)CNc1nc(Cn2nc(-c3ccc(Cl)cc3)n(C[C@H](O)C(F)(F)F)c2=O)nn1-c1ccccn1 [Example 93, 2-({5-[(2-Amino-2-methylpropyl)amino]-1-(pyridin-2-yl)-1H-1,2,4-triazol-3-yl}methyl)-5-(4-chlorophenyl)-4-[(2S)-3,3,3-trifluoro-2-hydroxypropyl]-2,4-dihydro-3H-1,2,4-triazol-3-one]
8.37	22.2	7.02	CC(C)(N)CNc1nc(Cn2nc(-c3ccc(Cl)cc3)n(C[C@H](O)C(F)(F)F)c2=O)nn1-c1ccccc1 [Example 94, 2-({5-[(2-Amino-2-methylpropyl)amino]-1-phenyl-1H-1,2,4-triazol-3-yl}methyl)-5-(4-chlorophenyl)-4-[(2S)-3,3,3-trifluoro-2-hydroxypropyl]-2,4-dihydro-3H-1,2,4-triazol-3-one]
9.07	845.9	6.14	CC(C)(N)CNc1nc(Cn2nc(-c3ccc(Cl)cc3)n(C[C@H](O)C(F)(F)F)c2=O)nn1-c1ncccc1Cl [Example 95, 2-({5-[(2-Amino-2-methylpropyl)amino]-1-(3-chloropyridin-2-yl)-1H-1,2,4-triazol-3-yl}methyl)-5-(4-chlorophenyl)-4-[(2S)-3,3,3-trifluoro-2-hydroxypropyl]-2,4-dihydro-3H-1,2,4-triazol-3-one]
9.00	407.5	6.39	O=c1n(Cc2nc(N3CCS(=O)(=O)CC3)n(-c3ncccc3Cl)n2)nc(-c2ccc(Cl)cc2)n1C[C@H](O)C(F)(F)F [Example 96, 5-(4-Chlorophenyl)-2-{[1-(3-chloropyridin-2-yl)-5-(1,1-dioxidothiomorpholin-4-yl)-1H-1,2,4-triazol-3-yl]methyl}-4-[(2S)-3,3,3-trifluoro-2-hydroxypropyl]-2,4-dihydro-3H-1,2,4-triazol-3-one]
9.25	176.9	7.00	O=C1CN(c2nc(Cn3nc(-c4ccc(Cl)cc4)n(C[C@H](O)C(F)(F)F)c3=O)nn2-c2ncccc2Cl)CCN1 [Example 97, 4-[3-({3-(4-Chlorophenyl)-5-oxo-4-[(2S)-3,3,3-trifluoro-2-hydroxypropyl]-4,5-dihydro-1H-1,2,4-triazol-1-yl}methyl)-1-(3-chloropyridin-2-yl)-1H-1,2,4-triazol-5-yl]piperazin-2-one]
8.72		6.84	CC(C)(O)CNc1nc(Cn2nc(-c3ccc(Cl)cc3)n(C[C@H](O)C(F)(F)F)c2=O)nn1-c1ncccc1Cl [Example 98, 5-(4-Chlorophenyl)-2-({1-(3-chloropyridin-2-yl)-5-[(2-hydroxy-2-methylpropyl)amino]-1H-1,2,4-triazol-3-yl}methyl)-4-[(2S)-3,3,3-trifluoro-2-hydroxypropyl]-2,4-dihydro-3H-1,2,4-triazol-3-one]
6.48	11.5	5.42	O=c1n(Cc2nc(N3CCS(=O)(=O)CC3)n(CCC(F)(F)F)n2)nc(-c2ccc(Cl)cc2)n1C[C@H](O)C(F)(F)F [Example 100, 5-(4-Chlorophenyl)-2-{[5-(1,1-dioxidothiomorpholin-4-yl)-1-(3,3,3-trifluoropropyl)-1H-1,2,4-triazol-3-yl]methyl}-4-[(2S)-3,3,3-trifluoro-2-hydroxypropyl]-2,4-dihydro-3H-1,2,4-triazol-3-one]
7.53	17.3	6.29	O=C1CC[C@H](CNc2nc(Cn3nc(-c4ccc(Cl)cc4)n(C[C@H](O)C(F)(F)F)c3=O)nn2CCC(F)(F)F)N1 [Example 101, 5-(4-Chlorophenyl)-2-{[5-({[(2R)-5-oxopyrrolidin-2-yl]methyl}amino)-1-(3,3,3-trifluoropropyl)-1H-1,2,4-triazol-3-yl]methyl}-4-[(2S)-3,3,3-trifluoro-2-hydroxypropyl]-2,4-dihydro-3H-1,2,4-triazol-3-one]
8.41	31.5	6.91	CC(C)(CNc1nc(Cn2nc(-c3ccc(Cl)cc3)n(C[C@H](O)C(F)(F)F)c2=O)nn1CCC(F)(F)F)NS(C)(=O)=O [Example 102, N-(1-{[3-({3-(4-Chlorophenyl)-5-oxo-4-[(2S)-3,3,3-trifluoro-2-hydroxypropyl]-4,5-dihydro-1H-1,2,4-triazol-1-yl}methyl)-1-(3,3,3-trifluoropropyl)-1H-1,2,4-triazol-5-yl]amino}-2-methylpropan-2-yl)methanesulfonamide]
